# Experimental data as given in patent US20260248810A1, “COMPOSITIONS FOR TREATING A SUBJECT FROM SEXUAL DYSFUNCTION” (priority 2023, published 2026).
# Key:
# [1] = Plasma total and free testosterone after sublingual androgen intake in two male patients; settings: blood plasma 15 minutes after sublingual intake, 5 mg T, or 5 mg T + 5 mg DHT; for Free T: measured, not calculated; for concentration at 15 min: human, plasma, other: sublingual, 5 mg, Total T
# Procedure: (§1) The first example concerns two male heterosexual patients with sexual problems (erection problems and reduced sexual arousal). […] This prompted two alternative forms of treatment. The first treatment involved taking 5 mg sublingual testosterone (in a solution consisting of alcohol, denaturalized water, testosterone and cyclodextrins) followed 2.5 hours later by taking Viagra (sildenafil 50 mg). The second treatment consisted of simultaneously taking 5 mg sublingual testosterone and 5 mg sublingual dihydrotestosterone (DHT) (in a solution consisting of alcohol, denaturalized water, DHT and cyclodextrins), followed after 2.5 hours by taking Viagra (50 mg). The testosterone and DHT solutions were prepared by a pharmacist on the request of a general practitioner. On both treatment days, patients were asked to engage in sexual activity between 1 and 1.5 hours after taking Viagra. […] Patients were also asked to answer some questions about their sexual arousal immediately before and within an hour after sexual activity.
# The table below describes the effects of the different treatments on ‘total testosterone’ and ‘free testosterone (i.e. measured, not calculated)’ for both patients: […]
# [2] = sublingually with cyclodextrins; women about 0.1-2 mg, men about 0.5-20 mg; cited from earlier work
# [3] = tested on: male heterosexual patients with sexual problems (erection problems and reduced sexual arousal); assay: Self-rated sexual arousal (scale 1 to 10) before and during sexual activity, sublingual androgen(s) followed by Viagra; assay type: in vivo, human; settings: history of the two male patients before the alternative treatments
# Procedure: as §1
# [4] = cited from earlier work
smiles,measurement,setting,value
"C[C@]12CC[C@H]3[C@@H](CCC4=CC(=O)CC[C@@]43C)[C@@H]1CC[C@@H]2O [T, 17-β-hydroxyandrost-4-en-3-one]",Free T,[1]; Patient 1,440 pml/L
same,Free T,[1]; Patient 2,1030 pml/L
same,concentration at 15 min,[1]; Patient 1,28.7 nM
same,concentration at 15 min,[1]; Patient 2,43.9 nM
same,time to pharmacological peak in testosterone,[2],about 15 minutes
"CCCc1nn(C)c2c(=O)[nH]c(-c3cc(S(=O)(=O)N4CCN(C)CC4)ccc3OCC)nc12 [Viagra, sildenafil]",effect of the usual treatments on the sexual problems,[3],little or no effect
CC[C@H](C)[C@@H]1NC(=O)[C@H](Cc2ccc(O)cc2)NC(=O)[C@@H](N)CSSC[C@@H](C(=O)N2CCC[C@H]2C(=O)N[C@@H](CC(C)C)C(=O)NCC(N)=O)NC(=O)[C@H](CC(N)=O)NC(=O)[C@H](CCC(N)=O)NC1=O [oxytocin],time of behavioral and neural effects after administration,[4]; dosages between 20-50 IE,15 to 90 min
same,T-max of oxytocin levels in the blood circulation,[4]; intranasal administration,approximately 15 minutes
same,return of oxytocin levels to baseline,[4]; intranasal administration,approximately 90 minutes
